Test results taken from patent publication US20050282755A1, “Compositions having antimicrobial activity and uses thereof” (priority 2004, published 2005).
pIC50: −log10 of the molar value. Converted amounts (≈) assume the structure as drawn.

Experiments:
[1] = tested on: S. aureus (Rosenbach); assay: Broth microdilution assay for MIC (20% TSB, 50 mM Na2CO3, 1 mM MgCl2), Table 4A; format: cell-based, Staphylococcus aureus; details: 3 log or greater reduction in bacterial growth over 16 hours
Method: S. dublin (Lane), S. aureus (Rosenbach), P. acnes, ATCC 6919, E. coli K12 TOP10, and E. coli K12 55099 (protease neg.) bacterial strains were tested in the microbial inhibition assays described hereafter. The S. dublin (Lane), and S. aureus (Rosenbach) strains are available from ATCC (Staphylococcus aureus subsp. aureus Rosenbach (Number: 13150) and Salmonella choleraesuis serotype dublin (Number: 39184)). The strain of P. acnes was purchased from ATCC (strain #6919) (Manassas, Va.). The E. coli K12 strains TOP 10 and 55099 were purchased from Invitrogen (Carlsbad, Calif.) and ATCC respectively. HeLa cells were purchased from ATCC (CCL2). Tryptic soy broth (TSB), Brucella broth, reinforced Clostridial broth and agar were purchased from Becton & Dickinson (distributed by VWR, West Chester, Pa.). All plastic consumables were purchased from VWR (West Chester, Pa.). […]
The minimum inhibitory concentration (MIC) of peptide compositions for S. aureus, S. dublin and E. coli was determined in a broth microdilution assay. […] The MIC for each peptide for each microorganism was determined by three methods. The growth of bacteria was directly determined by measuring the absorption at 600 nm using a Versamax microplate reader (Molecular Devices). […] After incubation for 16 hours at 37° C. bacterial growth was evaluated and documented (Alpha Innotech gel documentation system).

[2] = tested on: indigenous bacteria in human sebum; assay: Human sebum assay, bactericidal activity; format: cell-based; details: 250 Micromolar peptide, 150 minutes at 37° C; none: 8500000
Method: Sebum was harvested from healthy human volunteers using Biore® deep cleansing pore strips. The seburn plugs were collected in a microtube with a tweezer. […] The seburn was resusupended in 1% TSB, 10 mM Na2HPO4 into fine particulate suspension. The assay was performed in a total volume of 50 microliters. […] The samples were incubated for 150 minutes at 37° C. To determine the number of viable bacteria, a serial dilution was prepared (10 fold dilutions to 1/100000). […] After incubation for 72 hours bacterial growth was documented (Alpha Innotech documentation system). The number of CFU/milliliter was determined by counting bacteria colonies. The efficacy of a peptide is indicated by the reduction of CFU/milliliter compared to the untreated control.

[3] = tested on: human red blood cells; format: cell-based; details: red cells of human, 100 Micromolar
Method: Hemoglobin-release assays with human red blood cells (RBC) were performed to determine the hemolytic activity of granulysin peptides. Human RBCs (San Diego Blood Bank, San Diego, Calif.) were washed three times in PBS buffer (8 mM Na2HPO4, 1.5 mM KH2PO4, 140 mM NaCl and 2.7 mM KCl, pH 7.4), resuspended in PBS to the concentration of 5% (v/v). The RBC were then exposed to different peptide compositions at various concentrations (100-6.25 micromolar) and incubated at 37° C. for 60 minutes in a total volume of 120 microliters. Every experiment included a negative control without peptide and maximum control treated with 5% TX-100 for complete hemoglobin release. Samples were centrifuged for 1 minute at 13,000 g to remove debris and intact cells. The hemoglobin-containing supernatant was removed and transferred to a microwell plate. Hemoglobin release was quantified at A540 using a Versamax plate reader (Molecular Devices). The degree of hemolysis is expressed as percentage of hemolysis compared to the […], using the following formula: % hemolysis=(sample−neg. control)/(max. control−neg. control)×100.

[4] = tested on: Jurkat cells; format: cell-based; details: 16 h
Method: Toxicity of peptide compositions for mammalian cells was determined by using a metabolic viability assay. For this assay 4×10^5 HeLa cells were seeded per well into a microwell plate (50 microliters volume). Jurkat cells also were utilized in separate experiments. The cells were incubated for 16 hours at 37° C. under mammalian cell culture conditions. Two fold serial dilutions for each peptide were prepared and added to the cells (final volume 100 microliters) and incubated for 16 hours at 37° C. For each dilution series control wells containing cells without peptide were included. The metabolic activity and viability of the cells were determined by using a commercially available assay (CellTiter96 assay, Promega Corp.). According to manufacturer's protocol 20 microliters of CellTiter reagent was added to each well and incubated at 37° C. for 1-4 hours. The CellTiter assay is a commercial version of the MTT assay, which measures the conversion of a tetrazolium […] into a colored formazan salt in metabolically active cells. The formation of the formazan product can be measured at 470 nm and is generally accepted as a measure of cellular viability. The cells were incubated at 37° C. and monitored for color development. The conversion of CellTiter reagent was measured at 470 nm using a Versamax plate reader (Molecular Devices). The viability of peptide treated cells is expressed as IC50 (i.e., concentration that leads to a 50% reduction of viability relative to the untreated control). Table 7A reports IC50 values for HeLa cells cultured in OptiMEM or 10% FBS when contacted with peptide compositions from Table 3, and Table 7B reports IC50 values for HeLa cells or Jurkat cells contacted with peptide compositions from Table 3.

[5] = tested on: E. coli K12 55099 (protease neg.); details: 3 log or greater reduction in bacterial growth over 16 hours

SMILES: CSCC[C@@H](NC(=O)[C@@H](Cc1ccccc1)NC(=O)[C@@H](CC(N)=O)NC(=O)[C@@H](CCCNC(=N)N)NC(=O)[C@@H](CO)NC(=O)[C@@H](Cc1c[nH]c2ccccc12)NC(=O)[C@@H](CC(=O)O)NC(=O)[C@@H](CCCNC(=N)N)NC(=O)[C@@H](Cc1c[nH]c2ccccc12)NC(=O)[C@@H](CCCNC(=N)N)NC(=O)[C@@H](CO)NC(=O)[C@@H](CCCNC(=N)N)NC(=O)CNC(=O)[C@H](NC(=O)[C@@H](CCCNC(=N)N)NC(=O)[C@@H](CO)NC(=O)[C@H](NC(=O)[C@@H](CCCNC(=N)N)NC(=O)[C@H](NC(C)=O)[C@H](C)O)C(C)C)[C@H](C)O)C(=O)N[C@H](CCCNC(=N)N)C(=O)N[C@H](C)C(=O)N[C@H](C)C(N)=O [Peptide 30, Ac-trvsrtgrsrwrdwsrnfmraa-NH2]
- Minimum inhibitory concentration (MIC) S. aureus [1]: 8 µM (≈ 22.4 µg/mL)
- Bactericidal activity for indigenous bacteria in human sebum, cfu/ml [2]: 1000 cfu/ml
- Hemolytic effect on human red blood cells [3]: 0%
- pIC50 [4]: < 4.00
- Minimum inhibitory concentration (MIC) E. coli 55099 [5]: 2 µM (≈ 5.59 µg/mL)
